Consider one molecule from US6534516B1, “Androgen receptor modulator compounds and methods” (Ligand Pharmaceuticals Incorporated, priority 1996, dated 2003).

In one experiment the target is T1, PR (Homo sapiens, UniProt P06401).
T1 sequence (P06401 1-933): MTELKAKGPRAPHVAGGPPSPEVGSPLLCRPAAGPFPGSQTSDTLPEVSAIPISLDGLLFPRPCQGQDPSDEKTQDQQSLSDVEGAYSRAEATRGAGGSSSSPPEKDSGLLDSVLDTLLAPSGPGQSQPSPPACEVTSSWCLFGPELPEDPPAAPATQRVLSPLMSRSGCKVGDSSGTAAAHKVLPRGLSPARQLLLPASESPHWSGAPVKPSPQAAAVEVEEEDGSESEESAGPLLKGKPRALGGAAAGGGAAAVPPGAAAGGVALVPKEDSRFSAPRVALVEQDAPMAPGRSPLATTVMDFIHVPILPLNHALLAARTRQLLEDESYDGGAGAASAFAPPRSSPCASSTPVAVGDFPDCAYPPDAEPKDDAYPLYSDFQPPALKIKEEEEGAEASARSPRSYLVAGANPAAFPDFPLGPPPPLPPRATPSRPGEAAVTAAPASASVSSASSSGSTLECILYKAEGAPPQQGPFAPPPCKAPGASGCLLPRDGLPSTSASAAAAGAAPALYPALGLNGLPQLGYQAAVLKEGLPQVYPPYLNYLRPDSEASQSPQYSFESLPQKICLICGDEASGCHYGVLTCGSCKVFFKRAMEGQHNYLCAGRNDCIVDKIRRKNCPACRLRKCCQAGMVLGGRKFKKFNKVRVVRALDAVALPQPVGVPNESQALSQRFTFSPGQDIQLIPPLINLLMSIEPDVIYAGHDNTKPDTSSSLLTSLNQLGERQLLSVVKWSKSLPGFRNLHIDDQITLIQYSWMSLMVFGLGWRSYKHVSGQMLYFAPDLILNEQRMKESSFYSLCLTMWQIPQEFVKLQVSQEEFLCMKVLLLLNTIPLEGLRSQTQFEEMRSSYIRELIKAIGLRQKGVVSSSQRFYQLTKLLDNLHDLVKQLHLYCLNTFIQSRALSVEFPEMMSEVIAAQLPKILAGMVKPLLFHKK
As to the kind of experiment: cell-based.

For experiment [1], the system named is immature castrated male rat. Nature of the experiment: Immature castrated male rat model with testosterone silastic implant, ventral prostate and seminal vesicle weights. It counts as in vivo. To be noted: for ED50: Rattus norvegicus, po, 72 h; for Seminal Vesicles weight / Ventral Prostate weight: 3 days. The source says: The activity of selected compounds of the present invention as AR antagonists was *~ investigated in an immature castrated male rat model. A recognized test of the antiandrogen activity of a given compound, as described in L. G. Hershberger et al., 83 Proc. Soc. Exptl. […] Similar approaches have been used in the rat and in hamsters. […] Dermatol.
The basis of this assay is the fact that male sexual accessory organs, such as the prostate and seminal vesicles, play an important role in reproductive function. […] See F. Labrie et al., 16 Clin. Invest. […] However, this is not a major pathway since, in both animals and humans, castration without concomitant adrenalectomy leads to almost complete involution of the prostate and seminal vesicles. […] See M. C. […] Since the male sex organs are the tissues most responsive to modulation by androgen activity, this model is used to determine the androgen-dependent growth of the sex accessory organs in immature castrated rats.
Immature male rats (50-60 g, 21 day-old Sprague-Dawley, Harlan) were castrated under metofane anesthesia. […] As a negative control, a group of castrated animals received empty 10 mm silastic implants. Animal groups were dosed for 3 days by oral gavage as follows:
At the end of the 3-day treatment, the animals were sacrificed, and the ventral prostates and seminal vesicles were collected and weighed. Organ weight data were normalized to body weight of each animal and expressed as mg/100 g body weight. Results were analyzed by analysis of variance followed by the Dunnett's test. Data were transformed to comply with the normality and variance homogeneity criteria required to utilize the analysis of variance and Dunnett's test. The following data transformations were used for the ventral prostate and seminal vesicle: square root and power 0.7 respectively. Thereafter, the data were fitted to a four-parameter logistic equation and potencies derived from the fitted estimates. The same data transformations were used for the equation-fitting phase of the data analysis.
The gain and loss of sexual organ weights reflect the changes of cell number (DNA content) and cell mass (protein content), depending upon the serum androgen concentrations. […] Therefore, measurement of organ wet weights is sufficient to indicate the bioactivity of androgens and androgen antagonists.

For a further experiment, the target named is T2, MR (Homo sapiens, UniProt P08235).
T2 construct: expressed in transfected cells
T2 sequence (P08235 1-984): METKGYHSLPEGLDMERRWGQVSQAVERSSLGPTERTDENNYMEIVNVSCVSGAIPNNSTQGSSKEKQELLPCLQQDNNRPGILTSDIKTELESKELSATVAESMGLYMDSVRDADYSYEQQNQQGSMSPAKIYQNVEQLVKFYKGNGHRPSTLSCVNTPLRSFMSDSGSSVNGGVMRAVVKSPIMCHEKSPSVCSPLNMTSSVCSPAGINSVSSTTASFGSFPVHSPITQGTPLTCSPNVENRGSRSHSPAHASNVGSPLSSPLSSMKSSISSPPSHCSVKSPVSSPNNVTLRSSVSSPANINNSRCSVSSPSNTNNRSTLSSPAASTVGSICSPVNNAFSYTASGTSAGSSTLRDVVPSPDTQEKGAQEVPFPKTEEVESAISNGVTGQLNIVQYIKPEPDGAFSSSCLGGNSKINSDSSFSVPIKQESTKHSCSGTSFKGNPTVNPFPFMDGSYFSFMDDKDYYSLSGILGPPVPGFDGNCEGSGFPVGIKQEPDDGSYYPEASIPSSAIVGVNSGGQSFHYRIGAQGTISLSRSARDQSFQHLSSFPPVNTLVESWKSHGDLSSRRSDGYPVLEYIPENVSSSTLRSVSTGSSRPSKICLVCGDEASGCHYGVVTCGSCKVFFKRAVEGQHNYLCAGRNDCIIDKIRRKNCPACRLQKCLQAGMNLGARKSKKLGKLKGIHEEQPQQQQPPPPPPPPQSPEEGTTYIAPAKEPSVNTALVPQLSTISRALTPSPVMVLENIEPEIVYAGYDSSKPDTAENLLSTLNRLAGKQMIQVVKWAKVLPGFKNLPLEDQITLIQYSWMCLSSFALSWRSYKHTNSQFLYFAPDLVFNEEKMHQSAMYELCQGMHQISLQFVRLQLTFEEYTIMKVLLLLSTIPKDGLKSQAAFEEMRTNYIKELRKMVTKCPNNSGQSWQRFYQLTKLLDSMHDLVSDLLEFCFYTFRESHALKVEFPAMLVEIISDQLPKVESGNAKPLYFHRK
Nature of the experiment: Co-transfection assay, cross-reactivity on MR. It counts as cell-based.

Where two headings read alike, the source gives them in different places.

Take `CC1(C)CCc2cc3c(C(F)(F)F)c(F)c(=O)[nH]c3cc2N1` [Compound 105, 7-Fluoro-1,2,3,4-tetrahydro-2,2-dimethyl-6-trifluoromethyl-8-pyridono[5,6-g]quinoline]: the values for the 50% inhibitory concentration (IC50) against PR and at MR were 160 nM and 2260 nM, respectively. For the same molecule, in experiment [1] (30 mg/kg), the “suppression of seminal vesicle weight relative to castrate levels (in words)” value is reported as “complete suppression to castrate levels”. Further, the “suppression of ventral prostate weight relative to castrate levels (in words)” value in experiment [1] (30 mg/kg) is recorded as “suppresses ventral prostate weight to castrate levels”. The ED50 in experiment [1] (read-out: Potency (ED50) Weighted Average ± SE, Seminal Vesicle Weight) came to 7.5 ± 1.3 mg/kg; in experiment [1] (read-out: Potency (ED50) Weighted Average ± SE, Ventral Prostate Weight) it was 3.1 ± 0.7 mg/kg. Also, the “Seminal Vesicles weight” value in experiment [1] (T implant + 0.1 mg/kg oral) was 28.1 ± 3.6 (5) mg/100 g body weight; in experiment [1] (T implant + 1 mg/kg oral) it was 27.4 ± 1.7 (5) mg/100 g body weight; in experiment [1] (T implant + 3 mg/kg oral) it was 24.9 ± 0.9 (5) mg/100 g body weight; in experiment [1] (T implant + 10 mg/kg oral), 15.2 ± 0.3 (5) mg/100 g body weight; in experiment [1] (T implant + 30 mg/kg oral) it was 7.1 ± 1.4 (5) mg/100 g body weight; in experiment [1] (T implant + 100 mg/kg oral) it was 7.6 ± 1.4 (5) mg/100 g body weight. Moreover, the “Ventral Prostate weight” value is 74.8 ± 5.4 (5) mg/100 g body weight in experiment [1] (T implant + 0.1 mg/kg oral); 63.6 ± 6.6 (5) mg/100 g body weight in experiment [1] (T implant + 1 mg/kg oral); 48.4 ± 6.6 (5) mg/100 g body weight in experiment [1] (T implant + 3 mg/kg oral); 40.0 ± 1.3 (5) mg/100 g body weight in experiment [1] (T implant + 10 mg/kg oral); 24.6 ± 2.0 (5) mg/100 g body weight in experiment [1] (T implant + 30 mg/kg oral); 23.6 ± 2.2 (5) mg/100 g body weight in experiment [1] (T implant + 100 mg/kg oral).
